Measured values from patent US5110976A, “Insecticidal composition comprising more than one active ingredient” (priority 1985, dated 1992).
In brackets after ≈: the same amount, converted by molar mass.

Columns and labels:
[1] = system: Musca domestica; experiment: Filter paper disc contact test (Table 11); format: in vivo, house fly (Musca domestica); settings: Musca domestica, 24 h
Method: In Table 1 the activity of various stereoisomers of cypermethrin on the house fly (Musca domestica) is shown.
(§1) The active ingredient is dissolved in a 1:2 mixture of oil and acetone; filter paper discs (Whatman No. 1, diameter 9 cm) are impregnated with the solutions of the corresponding stereoisomers and enantiomer-pairs, respectively. The acetone is allowed to evaporate, whereupon the insects are exposed to filter papers discs placed in Petri-dishes. Three parallels are used on each dose and 15 insects are placed into each Petri-dish. The percental mortality is determined after 24 hours. The corrected percent mortality is calculated by means of the Abbot Formula.

[2] = system: Tribolium confusum; experiment: Contact test on Tribolium confusum (Table 12); format: in vivo
Method: as §1
It appears from Table 12 that the increased activity shown in Example 41 is due to the synergistic effect of the trans-isomers to Tribolium confusum.

[3] = system: Tribolium confusum; experiment: Contact test, mixtures of Ia and Ib of various ratio (Table 13); format: in vivo, flour beetle (Tribolium confusum); settings: Tribolium confusum, 24 h
Method: as §1
In Table 13 the insecticidal effect of mixtures of enantiomer-pairs Ia and Ib of various ratio is shown on flour beetle (Tribolium confusum). The test method is that disclosed in Example 43.

[4] = system: Colorado potato beetle; experiment: Topical test on Colorado potato beetle (Table 14); format: in vivo, Colorado potato beetle (Leptinotersa decemlineata), imago; settings: Leptinotarsa decemlineata, topical
Method: In Table 14 the activity on Colorado potato beetle is shown.
The test materials are dissolved in 2-ethoxyethanol (Cellosolve). One 0.3 μl drop of the solution is applied to the abdominal sterna of the imago. The treatment is carried out by using 2 parallels and 10 insects for each dose. […]

[5] = system: Acanthoscelides obtectus; experiment: Comparative contact test (Table 15); format: in vivo, bean weevil (Acanthoscelides obtectus), imago
Method: as §1
(§2) The comparative test of Ia, Ib and a 40:60 mixture of Ia:Ib is carried out on bean weevil (Acanthoscelides obtectus), flour-beetle, (Tribolium confusum), house fly (Musca domestica) and sheep maggot fly (Lucillia sericata). The test method described is Example 41.

[6] = system: tribolium confusum; experiment: Comparative contact test (Table 15); format: in vivo, flour-beetle (Tribolium confusum), imago; settings: 24 h
Method: as §1, §2

[7] = system: Musca domestica; experiment: Comparative contact test (Table 15); format: in vivo, house fly (Musca domestica), imago; settings: 24 h
Method: as §1, §2

[8] = system: Lucillia sericata; experiment: Comparative contact test (Table 15); format: in vivo, sheep maggot fly (Lucillia sericata), imago; parameters: key: % mortality after 24 h, Abbott-corrected; settings: 1440 min
Method: as §1, §2

[9] = system: T. confusum; experiment: Activity as function of time, toxic symptoms (Table 16); format: in vivo, flour beetle (T. confusum), imagos
Method: as §1
Activity of cypermethrin stereoisomer-pairs as function of time on flour beetle (T. Confusum).
Flour beetle (T. confusum) imagos are exposed in Petri-dishes according to the method described in Example 43. For each dose 3 parallels are used and 15 animals are applied for each parallel test. In each point of time the insects lying on their backs are counted and the percental results are expressed in Table 16.

[10] = system: Hyphantria cunea; experiment: Topical test on fall webworm (Table 18); format: in vivo, fall wetworm (Hyphantria cunea), L7-L8 larvae; settings: Hyphantria cunea, topical, 24 h
Method: The active ingredients are dissolved in 2-ethoxy-ethanol and the solutions are applied in the form of 0.2 μl droplets onto the back of fall wetworm (Hyphantria cunea) of L7 -L8 larvae stage. The treated worms are placed on strawberry leaves in Petri-dishes. The test is carried out by using […], 2 parallels and 10 insects for each dose. The killed worms are counted after 24 hours and the percental mortality rate is calculated.

[11] = system: Tetranychus urticae; experiment: Potter Tower spray on mite-infested leaves (Table 19); format: in vivo, mites (Tetranychus urticae); settings: Tetranychus urticae, 24 h, mortality after 24 hours; read-out: approx. LD50
Method: Leaves already infested with mites (Tetranychus urticae) were sprayed under Potter Tower. Mortality after 24 hours on the treated leaves was compared with the control.

CC1(C)[C@H](C=C(Cl)Cl)[C@H]1C(=O)O[C@H](C#N)c1cccc(Oc2ccccc2)c1 (relative stereo) [Ib]
mortality at 40 µg/disc ([1]; 0.04 mg/disc): 32%
mortality at 110 µg/disc ([1]; 0.11 mg/disc): 62%
mortality at 330 µg/disc ([1]; 0.33 mg/disc): 95%
mortality at 1000 µg/disc ([1]; 1.00 mg/disc): 100%
mortality at 3000 µg/disc ([1]; 3.00 mg/disc): 100%
mortality at 110 µg/disc ([2]; Tribolium confusum, 24 h, 0.11 mg/disc): 64%
mortality at 330 µg/disc ([2]; Tribolium confusum, 24 h, 0.33 mg/disc): 89%
mortality at 1000 µg/disc ([2]; Tribolium confusum, 24 h, 1.00 mg/disc): 100%
mortality at 3000 µg/disc ([2]; Tribolium confusum, 24 h, 3.00 mg/disc): 100%
synergism between the members of the enantiomer-pair ([2]; in vivo): synergism observed
mortality at 60 µg/disc ([3]; 0.06 mg/disc): 46%
mortality at 250 µg/disc ([3]; 0.25 mg/disc): 100%
mortality at 20 µg/disc ([3]; 0.02 mg/disc): 8%
mortality at 1000 µg/disc ([3]; 1.00 mg/disc): 100%
mortality at 0.05 µg/beetle ([4]; read-out: 24 hours' mortality %, 0.05 μg/beetle): 0%
mortality at 0.1 µg/beetle ([4]; read-out: 24 hours' mortality %, 0.10 μg/beetle): 25%
mortality at 0.2 µg/beetle ([4]; read-out: 24 hours' mortality %, 0.20 μg/beetle): 75%
mortality at 0.4 µg/beetle ([4]; read-out: 24 hours' mortality %, 0.40 μg/beetle): 85%
mortality at 20 µg/disc ([5]; Acanthoscelides obtectus, 24 h, 0.02 mg/disc): 32%
mortality at 70 µg/disc ([5]; Acanthoscelides obtectus, 24 h, 0.07 mg/disc): 55%
mortality at 220 µg/disc ([5]; Acanthoscelides obtectus, 24 h, 0.22 mg/disc): 87%
mortality at 670 µg/disc ([5]; Acanthoscelides obtectus, 24 h, 0.67 mg/disc): 100%
mortality at 2000 µg/disc ([5]; Acanthoscelides obtectus, 24 h, 2.0 mg/disc): 100%
mortality at 6000 µg/disc ([5]; Acanthoscelides obtectus, 24 h, 6.0 mg/disc): 100%
comparative activity ([5]; Example 47, further insect species, Ib versus Ia): more active than Ia
mortality at 20 µg/disc ([6]; 0.02 mg/disc): 14%
mortality at 70 µg/disc ([6]; 0.07 mg/disc): 73%
mortality at 220 µg/disc ([6]; 0.22 mg/disc): 100%
mortality at 670 µg/disc ([6]; 0.67 mg/disc): 100%
mortality at 2000 µg/disc ([6]; 2.0 mg/disc): 100%
mortality at 6000 µg/disc ([6]; 6.0 mg/disc): 100%
mortality at 20 µg/disc ([7]; 0.02 mg/disc): 0%
mortality at 70 µg/disc ([7]; 0.07 mg/disc): 18%
mortality at 220 µg/disc ([7]; 0.22 mg/disc): 67%
mortality at 670 µg/disc ([7]; 0.67 mg/disc): 100%
mortality at 2000 µg/disc ([7]; 2.0 mg/disc): 100%
mortality at 6000 µg/disc ([7]; 6.0 mg/disc): 100%
mortality ([8]; 0.02 mg/disc): 22
mortality ([8]; 0.07 mg/disc): 55
mortality ([8]; 0.22 mg/disc): 70
mortality ([8]; 0.67 mg/disc): 75
mortality ([8]; 2.0 mg/disc): 100
mortality ([8]; 6.0 mg/disc): 100
% of insects showing toxic symptoms ([9]; 30 minutes): 0%
% of insects showing toxic symptoms ([9]; 30 minutes, 0.33 mg/disc): 0%
% of insects showing toxic symptoms ([9]; 30 minutes, 1.00 mg/disc): 47%
% of insects showing toxic symptoms ([9]; 30 minutes, 3.00 mg/disc): 61%
% of insects showing toxic symptoms ([9]; 60 minutes): 0%
% of insects showing toxic symptoms ([9]; 60 minutes, 0.33 mg/disc): 21%
% of insects showing toxic symptoms ([9]; 60 minutes, 1.00 mg/disc): 82%
% of insects showing toxic symptoms ([9]; 60 minutes, 3.00 mg/disc): 100%
% of insects showing toxic symptoms ([9]; 120 minutes): 28%
% of insects showing toxic symptoms ([9]; 120 minutes, 0.33 mg/disc): 100%
% of insects showing toxic symptoms ([9]; 120 minutes, 1.00 mg/disc): 100%
% of insects showing toxic symptoms ([9]; 120 minutes, 3.00 mg/disc): 100%
% of insects showing toxic symptoms ([9]; 180 minutes): 56%
% of insects showing toxic symptoms ([9]; 180 minutes, 0.33 mg/disc): 100%
% of insects showing toxic symptoms ([9]; 180 minutes, 1.00 mg/disc): 100%
% of insects showing toxic symptoms ([9]; 180 minutes, 3.00 mg/disc): 100%
mortality at 0.023 µg/disc ([10]; 0.023 (μg/disc)): 10%
mortality at 0.047 µg/disc ([10]; 0.047 (μg/disc)): 15%
mortality at 0.094 µg/disc ([10]; 0.094 (μg/disc)): 30%
mortality at 0.188 µg/disc ([10]; 0.188 (μg/disc)): 70%
mortality at 0.375 µg/disc ([10]; 0.375 (μg/disc)): 80%
LC50 [11]: ~0.34 µg/mL (≈ 0.817 µM)
